Details of data set [1]: method as in Petzinger et al. The following applies: after in situ ileal perfusion, rat, within 120 min; ref Petzinger et al.; cited from earlier work.
A further data set deals with T1, human ASBT (Homo sapiens, UniProt Q12908).
T1 sequence (Q12908 1-348): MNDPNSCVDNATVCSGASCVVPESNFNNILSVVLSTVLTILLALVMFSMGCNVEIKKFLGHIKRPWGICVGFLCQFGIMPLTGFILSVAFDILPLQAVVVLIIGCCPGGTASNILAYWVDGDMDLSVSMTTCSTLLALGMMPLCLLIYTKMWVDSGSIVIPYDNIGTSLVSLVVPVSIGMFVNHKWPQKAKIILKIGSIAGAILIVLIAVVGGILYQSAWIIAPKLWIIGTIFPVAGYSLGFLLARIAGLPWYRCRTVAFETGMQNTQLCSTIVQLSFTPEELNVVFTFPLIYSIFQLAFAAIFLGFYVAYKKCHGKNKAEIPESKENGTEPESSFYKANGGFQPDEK
In words: cell-based.

The next data set concerns the target T2, mouse mAsbt (Mus musculus, UniProt P70172).
T2 sequence (P70172 1-348): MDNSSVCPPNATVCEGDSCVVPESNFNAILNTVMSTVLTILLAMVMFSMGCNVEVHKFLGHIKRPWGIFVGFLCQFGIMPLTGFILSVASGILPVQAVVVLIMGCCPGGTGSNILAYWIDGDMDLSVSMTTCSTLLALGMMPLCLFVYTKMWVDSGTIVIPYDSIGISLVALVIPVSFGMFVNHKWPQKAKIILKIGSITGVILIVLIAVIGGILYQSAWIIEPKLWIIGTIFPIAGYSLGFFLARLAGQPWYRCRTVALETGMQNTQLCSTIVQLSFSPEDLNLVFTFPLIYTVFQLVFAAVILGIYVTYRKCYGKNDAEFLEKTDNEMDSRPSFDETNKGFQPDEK
In words: cell-based.

As a reminder, the IC50 is the concentration that inhibits the measured activity by half. The low end stands for higher potency, the high end for lower potency.

Description for human ASBT: (§1) HEK293 cells stably expressing human NTCP (A), mouse mNtcp (B), human ASBT (C), or mouse mAsbt (D) were used for transport experiments with 3α-NBD-GCA (16d) as the substrate. Fluorescence data in the absence of inhibitors were set as 100% and the fluorescence levels in sodium-free transport buffer were set to 0%. […] Half-maximal inhibitory concentrations (IC50) were calculated by nonlinear regression analysis.
(§2) For quantitative transport experiments, cells were seeded onto polylysine-coated 96-well plates and grown to confluence over 72 h at 37 °C. Then, cells were washed three times with phosphate-buffered saline (PBS), containing 137 mM NaCl, 2.7 mM KCl, 1.5 mM, KH2PO4, and 7.3 mM Na2HPO4 (pH 7.4) followed by preincubation in sodium transport buffer (STB) containing 142.9 mM NaCl, 4.7 mM KCl, 1.2 mM MgSO4, 1.2 mM KH2PO4, 1.8 mM CaCl2, and 20 mM HEPES (pH 7.4). For transport assays under sodium-free conditions (-Na^+), sodium chloride of the STB was substituted with equimolar concentrations of choline chloride. […] Then, transport experiments were started by adding 20 μL STB containing 125 μM of 3α-NBD-GCA (final substrate concentration: 25 μM). All transport experiments were stopped after 10 min, if not otherwise indicated, by aspirating the transport buffer and washing the cells twice with ice-cold PBS. […]
Description for mouse mAsbt: as §1, §2

Turning to `C[C@H](CCC(=O)NCCS(=O)(=O)O)[C@H]1CC[C@H]2[C@@H]3[C@H](O)C[C@@H]4CC(Nc5ccc([N+](=O)[O-])c6nonc56)CC[C@]4(C)[C@H]3C[C@H](O)[C@]12C` (stereo partly drawn) [S4148], the “Compound secreted into bile” value in data set [1] was 76%. Regarding `Cc1c(C)c2c(c(C)c1O)CCC(C)(COc1ccc(CC3SC(=O)NC3=O)cc1)O2` (stereo not drawn) [troglitazone], the half-maximal inhibitory concentration (IC50) against human ASBT was 19.5 µM; against mouse mAsbt, 18.9 µM.

The record behind these values is publication PMC12169615, “Fluorescent 4‑Nitrobenzo-2-oxa-1,3-diazole-Coupled Bile Acids as Probe Substrates of Hepatic and Intestinal Bile Acid Transporters of the Solute Carrier Families SLC10 and SLCO” (Journal of Medicinal Chemistry, 2025).
